Experimental data reported in BindingDB's records for PubMed 37191335 (Tongji University, 2023).
Peptide text beside a SMILES is read from it.

Experiments:
[1] = Inhibition of TNF-alpha (unknown origin) binding to TNFR1 assessed as dissociation constant of TNF-alpha preincubated for 15 mins by MST assay (Rvb = 13.4 nM)
[2] = Inhibition of TNF-alpha (unknown origin) binding to TNFR2 assessed as dissociation constant of TNF-alpha preincubated for 15 mins by MST assay (Rvb = 30.5 nM)

## C[C@H](N)C(=O)N[C@@H](CS)C(=O)N[C@@H](Cc1cnc[nH]1)C(=O)N[C@@H](C)C(=O)N[C@@H](Cc1c[nH]c2ccccc12)C(=O)N[C@@H](C)C(=O)N1CCC[C@H]1C(=O)N[C@H](C(=O)N[C@@H](CCCNC(=N)N)C(=O)O)[C@@H](C)O (H-ACHAWAPTR-OH)
[1]
  Kd: 996 nM
[2]
  Kd: 321 nM
